Patent US7951752B2, “O-cyclopropyl-carboxanilides and their use as fungicides” (Syngenta Crop Protection, Inc., priority 2002, dated 2011)

melting point: 61 to 65 °C
SMILES: CC(C)CC1CC1c1ccccc1NC(=O)c1cn(C)cc1C(F)(F)F (stereo not shown) [Compound 3.17, 1-methyl-4-trifluoromethyl-1H-pyrrole-3-carboxylic acid [2-(2-isobutyl-cyclopropyl)phenyl]amide]
